Test results taken from PubChem BioAssay AID1963983 (Molecular Pharmacology Branch, DTP, NCI, 2024).

System: 186277-243-T-J2-PDC multi-cell spheroid viability
Assay: Anticancer human tumor 186277-243-T-J2-PDC patient-derived colon adenocarcinoma cell line growth inhibition [PI3K]
Conditions: for IC50: curve of first compound; for viability, T/C: stronger effect = lower value; active = viability on the fitted dose curve at most 10% of control; inactive = the rest
Method in brief: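 Stroma-containing spheroids: tumor line, pooled-donor HUVEC, hMSC. Treatments: targeted agents with PI3K inhibitors. Dosing: clinically relevant, half-log spacing, 10 microM ceiling without known Cmax. Read-out: cell viability.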

[1] = second compound 0.0316 µM, first compound 0.0316 µM
[2] = second compound 0.0316 µM, first compound 0.1 µM
[3] = second compound 0.1 µM, first compound 0.0316 µM
[4] = second compound 0.1 µM, first compound 0.1 µM
[5] = second compound 0.316 µM, first compound 0.0316 µM
[6] = second compound 0.316 µM, first compound 0.1 µM
[7] = second compound 1 µM, first compound 0.0316 µM
[8] = second compound 1 µM, first compound 0.1 µM
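Note: spheroids exposed to compounds for seven days before viability reading.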
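Throughout, for viability, T/C: 100% = DMSO vehicle control viability.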

CC(C)n1nc(-c2ccc3oc(N)nc3c2)c2c(N)ncnc21 + CC(Nc1ccc2c(c1)OCCn1cc(N3C(=O)OCC3C(F)F)nc1-2)C(N)=O
47.5 nM: IC50 (second compound 0.0316 µM)
55.2 nM: IC50 (second compound 0.01 µM)
52.9 nM: IC50 (second compound 0.00316 µM)
inactive: viability, T/C (second compound 0.00316 µM, first compound 0.000316 µM) 90% | viability, T/C (second compound 0.00316 µM, first compound 0.001 µM) 101% | viability, T/C (second compound 0.00316 µM, first compound 0.00316 µM) 104% | viability, T/C (second compound 0.00316 µM, first compound 0.01 µM) 93.7% | viability, T/C (second compound 0.00316 µM, first compound 0.0316 µM) 75.1% | viability, T/C (second compound 0.00316 µM, first compound 0.1 µM) 19.1% | viability, T/C (second compound 0.01 µM, first compound 0.000316 µM) 116% | viability, T/C (second compound 0.01 µM, first compound 0.001 µM) 87.5% | viability, T/C (second compound 0.01 µM, first compound 0.00316 µM) 113% | viability, T/C (second compound 0.01 µM, first compound 0.01 µM) 93.1% | viability, T/C (second compound 0.01 µM, first compound 0.0316 µM) 73.5% | viability, T/C (second compound 0.01 µM, first compound 0.1 µM) 25.3% | viability, T/C (second compound 0.0316 µM, first compound 0.000316 µM) 107% | viability, T/C (second compound 0.0316 µM, first compound 0.001 µM) 116% | viability, T/C (second compound 0.0316 µM, first compound 0.00316 µM) 97.9% | viability, T/C (second compound 0.0316 µM, first compound 0.01 µM) 89.9% | viability, T/C [1] 69.7% | viability, T/C [2] 17.5% | viability, T/C (second compound 0.1 µM, first compound 0.000316 µM) 95.8% | viability, T/C (second compound 0.1 µM, first compound 0.001 µM) 94.2% | viability, T/C (second compound 0.1 µM, first compound 0.00316 µM) 92.5% | viability, T/C (second compound 0.1 µM, first compound 0.01 µM) 82.4% | viability, T/C [3] 48.8% | viability, T/C (second compound 0.316 µM, first compound 0.000316 µM) 81.7% | viability, T/C (second compound 0.316 µM, first compound 0.001 µM) 80.3% | viability, T/C (second compound 0.316 µM, first compound 0.00316 µM) 63.5% | viability, T/C (second compound 0.316 µM, first compound 0.01 µM) 49.7% | viability, T/C [5] 22.6% | viability, T/C (second compound 1 µM, first compound 0.000316 µM) 46.9% | viability, T/C (second compound 1 µM, first compound 0.001 µM) 39.3% | viability, T/C (second compound 1 µM, first compound 0.00316 µM) 37.6% | viability, T/C (second compound 1 µM, first compound 0.01 µM) 24.3% | viability, T/C [7] 8.53%
active: viability, T/C [4] 8.12% | viability, T/C [6] 6.29% | viability, T/C [8] 3.88%
8.51 nM: IC50 (second compound 0.316 µM)
30.4 nM: IC50 (second compound 0.1 µM)
< 0.316 nM: IC50 (second compound 1 µM)

CNC(=O)c1ccc(N2C(=S)N(c3ccc(C#N)c(C(F)(F)F)c3)C(=O)C2(C)C)cc1F + CC(Nc1ncnc2nc[nH]c12)c1cc2cccc(Cl)c2c(=O)n1-c1ccccc1
> 10000 nM: IC50 (second compound 0.0316 µM) | IC50 (second compound 0.1 µM) | IC50 (second compound 0.316 µM) | IC50 (second compound 1 µM) | IC50 (second compound 3.16 µM) | IC50 (second compound 10 µM)
inactive: viability, T/C [1] 100% | viability, T/C [2] 117% | viability, T/C (second compound 0.0316 µM, first compound 0.316 µM) 90.9% | viability, T/C (second compound 0.0316 µM, first compound 1 µM) 90.1% | viability, T/C (second compound 0.0316 µM, first compound 3.16 µM) 101% | viability, T/C (second compound 0.0316 µM, first compound 10 µM) 92% | viability, T/C [3] 99.7% | viability, T/C [4] 107% | viability, T/C (second compound 0.1 µM, first compound 0.316 µM) 88.6% | viability, T/C (second compound 0.1 µM, first compound 1 µM) 115% | viability, T/C (second compound 0.1 µM, first compound 3.16 µM) 115% | viability, T/C (second compound 0.1 µM, first compound 10 µM) 99.8% | viability, T/C [5] 104% | viability, T/C [6] 119% | viability, T/C (second compound 0.316 µM, first compound 0.316 µM) 102% | viability, T/C (second compound 0.316 µM, first compound 1 µM) 104% | viability, T/C (second compound 0.316 µM, first compound 3.16 µM) 112% | viability, T/C (second compound 0.316 µM, first compound 10 µM) 113% | viability, T/C [7] 89.3% | viability, T/C [8] 112% | viability, T/C (second compound 1 µM, first compound 0.316 µM) 117% | viability, T/C (second compound 1 µM, first compound 1 µM) 116% | viability, T/C (second compound 1 µM, first compound 3.16 µM) 106% | viability, T/C (second compound 1 µM, first compound 10 µM) 103% | viability, T/C (second compound 3.16 µM, first compound 0.0316 µM) 116% | viability, T/C (second compound 3.16 µM, first compound 0.1 µM) 128% | viability, T/C (second compound 3.16 µM, first compound 0.316 µM) 103% | viability, T/C (second compound 3.16 µM, first compound 1 µM) 106% | viability, T/C (second compound 3.16 µM, first compound 3.16 µM) 118% | viability, T/C (second compound 3.16 µM, first compound 10 µM) 92.9% | viability, T/C (second compound 10 µM, first compound 0.0316 µM) 90.5% | viability, T/C (second compound 10 µM, first compound 0.1 µM) 102% | viability, T/C (second compound 10 µM, first compound 0.316 µM) 103% | viability, T/C (second compound 10 µM, first compound 1 µM) 96.6% | viability, T/C (second compound 10 µM, first compound 3.16 µM) 92.1% | viability, T/C (second compound 10 µM, first compound 10 µM) 89.4%
